Data: PubChem BioAssay (NCI)
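The compound was tested at five concentrations on cells cultured in 96-well plates, with a 48-hour exposure period. GI50: concentration for 50% inhibition of growth. At the TGI there is no net growth.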

Key:
Assay in all cases: DTP human tumour cell line panel, 48 h
[1] = test system: NCI/ADR-RES ovarian
[2] = test system: KM12 colon
[3] = test system: HL-60(TB) leukemia
[4] = test system: LOX IMVI melanoma
[5] = test system: EKVX NSCLC
[6] = test system: HOP-92 NSCLC
[7] = test system: SNB-75 CNS
[8] = test system: SR leukemia
[9] = test system: A549 NSCLC
[10] = test system: UACC-257 melanoma

| SMILES | TGI [1] | TGI [2] | TGI [3] | TGI [4] | TGI [5] | TGI [6] | TGI [7] | TGI [8] | TGI [9] | TGI [10] | GI50 [1] | GI50 [2] | GI50 [3] | GI50 [4] | GI50 [5] | GI50 [6] | GI50 [7] | GI50 [8] | GI50 [9] | GI50 [10] |
| --- | --- | --- | --- | --- | --- | --- | --- | --- | --- | --- | --- | --- | --- | --- | --- | --- | --- | --- | --- | --- |
| CS(=O)(=O)OC1CN2CCC1CC2 (stereo not drawn) | > 100 µM | > 100 µM | > 100 µM | > 100 µM | > 100 µM | > 100 µM | > 100 µM | > 100 µM | > 100 µM | > 100 µM | – | – | – | – | – | – | – | – | – | – |
| Cc1ccc(NP(=O)(Oc2ccccc2)N(CCCl)CCCl)cc1 (stereo not drawn) | – | > 100 µM | > 100 µM | – | > 100 µM | > 100 µM | > 100 µM | > 100 µM | > 100 µM | > 100 µM | – | – | – | – | – | – | – | – | – | – |
| C=CCc1cc(-c2cc(CC=C)c(O)c(CNC)c2)cc(CNC)c1O | – | 30.2 µM | 35.2 µM | 27.2 µM | – | 23.3 µM | 24.3 µM | – | 33 µM | 29.9 µM | – | – | – | – | – | – | – | – | – | – |
| O=C1N(c2ccccc2)C2(c3ccccc3)CC3CCCC13S2 (stereo not drawn) | > 100 µM | > 100 µM | 61.3 µM | > 100 µM | > 100 µM | > 100 µM | – | > 100 µM | > 100 µM | 51.1 µM | – | – | – | – | – | – | – | – | – | – |
| CCN(CC)CCCC(C)Nc1ccnc2cc3ccccc3cc12 (stereo not drawn) | > 100 µM | 33.8 µM | 75.9 µM | > 100 µM | > 100 µM | > 100 µM | 20.1 µM | > 100 µM | > 100 µM | 46.1 µM | – | – | – | – | – | – | – | – | – | – |
| O=C(O)c1cc(=O)[nH]c(SCc2ccccc2)n1 | > 100 µM | > 100 µM | > 100 µM | > 100 µM | > 100 µM | > 100 µM | > 100 µM | > 100 µM | > 100 µM | > 100 µM | – | – | – | – | – | – | – | – | – | – |
| CSc1nc(NC2OCC(OC(C)=O)C(OC(C)=O)C2OC(C)=O)c(N=C(C)C(C)=O)c(=O)[nH]1 (stereo not drawn) | – | > 100 µM | > 100 µM | > 100 µM | > 100 µM | > 100 µM | > 100 µM | > 100 µM | > 100 µM | > 100 µM | – | – | – | – | – | – | – | – | – | – |
| COc1ccc(C2CC(c3cccc(Nc4ccncc4)c3)=NN2c2ccc(Cl)cc2)cc1 (stereo not drawn) | 3.3 µM | 3.37 µM | 4.06 µM | 3.03 µM | 3.27 µM | 2.44 µM | 3.01 µM | 3.38 µM | 3.65 µM | 3.87 µM | 1.73 µM | 1.72 µM | 1.91 µM | 1.66 µM | 1.66 µM | 1.12 µM | 1.41 µM | 1.35 µM | 1.87 µM | 1.95 µM |
| CCCCCCCCCCCCCCCc1ccc(OCC(O)CO)cc1 (stereo not drawn) | – | 31.7 µM | 85 µM | 32.1 µM | 78.5 µM | 47.8 µM | 72 µM | > 100 µM | 50.1 µM | > 100 µM | – | – | – | – | – | – | – | – | – | – |
| CCN1C=C/C(=C\C=C/c2cc[n+](CC)c3ccccc23)c2ccccc21 | > 100 µM | 12.4 µM | 15.1 µM | – | 47 µM | 37.5 µM | 7.57 µM | 9.65 µM | 21.2 µM | 9.76 µM | – | – | – | – | – | – | – | – | – | – |
| Cc1cccc2cc3c(ccc4ccccc43)c[n+]12 | > 100 µM | 32 µM | > 100 µM | > 100 µM | > 100 µM | – | 21.8 µM | > 100 µM | > 100 µM | 37.9 µM | – | – | – | – | – | – | – | – | – | – |
| Nc1cc2c(nnn2C2OC(COCc3ccccc3)C(OCc3ccccc3)C2OCc2ccccc2)c(=O)[nH]1 (stereo not drawn) | > 100 µM | 54.6 µM | 28.1 µM | 53.2 µM | 46.1 µM | > 100 µM | > 100 µM | 35.6 µM | > 100 µM | 58.6 µM | – | – | – | – | – | – | – | – | – | – |
| O=C(C[C@H](NC(=O)OCc1ccccc1)C(=O)NC1Cc2ccccc2OC1=O)OCc1ccccc1 (stereo partly drawn) | > 100 µM | > 100 µM | – | – | – | > 100 µM | > 100 µM | > 100 µM | – | – | – | – | – | – | – | – | – | – | – | – |
| O=S1(=O)C(c2ccccc2)C(N2CCCCC2)C1C1CC2c3ccccc3C1c1ccccc12 (stereo not drawn) | > 100 µM | > 100 µM | > 100 µM | > 100 µM | > 100 µM | > 100 µM | > 100 µM | > 100 µM | > 100 µM | > 100 µM | – | – | – | – | – | – | – | – | – | – |
| O=C(C=P(c1ccccc1)(c1ccccc1)c1ccccc1)c1cccc(-c2cccc([N+](=O)[O-])c2)c1 | > 100 µM | > 100 µM | 4.82 µM | 9.63 µM | > 100 µM | 5.77 µM | 7.62 µM | – | > 100 µM | – | – | – | – | – | – | – | – | – | – | – |
| O=Cc1cc([N+](=O)[O-])no1 | > 100 µM | 54.2 µM | > 100 µM | > 100 µM | – | > 100 µM | > 100 µM | > 100 µM | – | 90.7 µM | – | – | – | – | – | – | – | – | – | – |
| CC(C)(C)OC(=O)NCC(=O)NC1c2ccsc2/C(=N/O)[C@H]1O (stereo partly drawn) | > 100 µM | – | > 100 µM | > 100 µM | > 100 µM | > 100 µM | – | > 100 µM | > 100 µM | > 100 µM | – | – | – | – | – | – | – | – | – | – |
| CCOC(=O)C[C@@H]1C2(C=C[C@@]13CO3)OCC(C)(C)CO2 | > 100 µM | – | > 100 µM | > 100 µM | > 100 µM | > 100 µM | > 100 µM | > 100 µM | > 100 µM | > 100 µM | – | – | – | – | – | – | – | – | – | – |
| C#CCn1ncc2c(SC)ncnc21 | > 100 µM | > 100 µM | – | > 100 µM | > 100 µM | > 100 µM | 97.8 µM | > 100 µM | > 100 µM | > 100 µM | – | – | – | – | – | – | – | – | – | – |
| Nc1ccc(-c2cssc2=S)cc1 | > 100 µM | > 100 µM | 62.5 µM | > 100 µM | > 100 µM | > 100 µM | – | – | > 100 µM | > 100 µM | – | – | – | – | – | – | – | – | – | – |
| CCCCCCNC(=O)c1cc(CCc2cc(O)ccc2O)ccc1O | > 67.7 µM | 39.6 µM | 4.11 µM | 19.3 µM | 15.8 µM | 3.87 µM | 14.4 µM | > 29 µM | 36.3 µM | 6.26 µM | – | – | – | – | – | – | – | – | – | – |
| CC(=O)Nc1ccc(N=C2C(c3ccccc3)=C(SC3=C(c4ccccc4)C(=Nc4ccc(NC(C)=O)cc4)c4ccccc43)c3ccccc32)cc1 | 72.9 µM | 89.5 µM | – | > 100 µM | > 100 µM | > 100 µM | > 100 µM | > 100 µM | > 100 µM | > 100 µM | – | – | – | – | – | – | – | – | – | – |
| CO/C=C(/C(=O)OC)c1ccccc1[C@@H]1CC1c1cccc(F)c1 (stereo partly drawn) | 91.8 µM | 83.9 µM | 57.9 µM | – | 88.1 µM | > 100 µM | – | > 100 µM | 78.5 µM | 52.4 µM | – | – | – | – | – | – | – | – | – | – |
| O=c1cc(-c2ccc(O)cc2)n(C2CC2)c2ccccc12 | 38.8 µM | 16.2 µM | 81.6 µM | 16.7 µM | – | 19.8 µM | – | > 100 µM | 18.5 µM | 25.8 µM | – | – | – | – | – | – | – | – | – | – |
| O=C1CS(=O)(=O)C(c2cccc(Oc3ccccc3)c2)N1c1cccc(Cl)c1 (stereo not drawn) | > 100 µM | > 100 µM | > 100 µM | 32.1 µM | 61.9 µM | 40.5 µM | > 100 µM | 41.2 µM | > 100 µM | 46.4 µM | – | – | – | – | – | – | – | – | – | – |
| c1ccc(C2CC(c3cccc(Nc4ccncc4)c3)=NN2c2ccccc2)cc1 (stereo not drawn) | 3.54 µM | 3.44 µM | 3.73 µM | 3.05 µM | 3.42 µM | 2.95 µM | 2.88 µM | – | – | 4.15 µM | 1.74 µM | 1.74 µM | 1.65 µM | 1.66 µM | 1.61 µM | 1.45 µM | 1.32 µM | – | – | 1.94 µM |
| N#Cc1c(NC(=S)Nc2ccc(Cl)cc2)sc2c1CCCC2 | > 100 µM | > 100 µM | > 100 µM | > 100 µM | > 100 µM | – | > 100 µM | 89.1 µM | – | > 100 µM | – | – | – | – | – | – | – | – | – | – |
| Cc1cc2c(cc1Cl)SC(c1ccccc1)C(=O)NS2(=O)=O (stereo not drawn) | 91.9 µM | > 100 µM | 58.9 µM | > 100 µM | > 100 µM | > 100 µM | 87 µM | 73.8 µM | – | 88.5 µM | – | – | – | – | – | – | – | – | – | – |
| CC(=O)Oc1c(C)c2c(O)c3c1C1=C(OCOC1=C(C)C3=O)/C(C)=C\C(C)(O)C(O)C(C)C(O)C1C(=O)OC(C(C)C1O)C(C)(O)/C=C/C=C(C)C(=O)N2 (stereo not drawn) | > 100 µM | > 100 µM | 7.3 µM | > 100 µM | > 100 µM | > 100 µM | > 100 µM | 83.3 µM | > 100 µM | > 100 µM | – | – | – | – | – | – | – | – | – | – |
| Cc1nc2c(n1C)C(=O)c1nc(CBr)[nH]c(=O)c1C2=O | – | – | > 100 µM | > 100 µM | 54.9 µM | > 100 µM | – | – | > 100 µM | – | – | – | – | – | – | – | – | – | – | – |
